Test results published in patent US11345681B1, “Inhibitors of fibroblast growth factor receptor kinases” (Kinnate Biopharma Inc., priority 2020, dated 2022).

Target: Wild type FGFR2 (Homo sapiens (Human), UniProt P21802)
Assay: FGFR2 kinase assay (fluorescence-based microfluidic mobility shift assay)
Assay type: biochemical
Settings: wild type FGFR2 0.06 nM, 100 μM ATP, 80 minutes at room temperature; class symbols

Sequence of Wild type FGFR2 (P21802 22-821): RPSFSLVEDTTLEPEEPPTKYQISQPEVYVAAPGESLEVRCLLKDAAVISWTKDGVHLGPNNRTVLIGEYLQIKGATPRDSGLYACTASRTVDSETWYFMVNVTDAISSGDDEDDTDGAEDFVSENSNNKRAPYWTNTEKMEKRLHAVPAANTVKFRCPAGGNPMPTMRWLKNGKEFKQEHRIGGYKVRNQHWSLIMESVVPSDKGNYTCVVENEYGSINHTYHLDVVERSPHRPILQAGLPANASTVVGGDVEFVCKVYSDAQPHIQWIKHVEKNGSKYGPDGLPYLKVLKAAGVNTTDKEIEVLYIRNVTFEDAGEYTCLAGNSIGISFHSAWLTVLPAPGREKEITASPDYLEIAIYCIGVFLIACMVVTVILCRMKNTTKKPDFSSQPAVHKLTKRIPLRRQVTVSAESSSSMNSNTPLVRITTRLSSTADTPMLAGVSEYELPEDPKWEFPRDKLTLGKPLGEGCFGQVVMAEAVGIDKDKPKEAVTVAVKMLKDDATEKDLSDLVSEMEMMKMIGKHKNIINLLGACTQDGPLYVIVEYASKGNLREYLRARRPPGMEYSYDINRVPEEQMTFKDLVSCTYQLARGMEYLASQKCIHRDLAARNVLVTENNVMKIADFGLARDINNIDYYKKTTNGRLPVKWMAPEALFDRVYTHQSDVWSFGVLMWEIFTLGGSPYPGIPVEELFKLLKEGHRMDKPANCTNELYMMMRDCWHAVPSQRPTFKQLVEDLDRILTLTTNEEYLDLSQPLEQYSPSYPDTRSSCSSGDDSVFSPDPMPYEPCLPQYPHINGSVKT

Row | Structure (SMILES) | IC50 [nM]
1 | C=CC(=O)N1C[C@@H](n2nc(C#Cc3cc4ncn([C@@H]5CC5(F)F)c4cc3Cl)c(C(N)=O)c2NC)C[C@@H]1COC (single isomer, unassigned) [Example 279] | ≤ 100
2 | C=CC(=O)N1C[C@@H](n2nc(C#Cc3cc4ncn([C@H]5CC5(F)F)c4cc3Cl)c(C(N)=O)c2NC)C[C@@H]1COC (single isomer, unassigned) [Example 280] | ≤ 100
3 | C=CC(=O)N1C[C@@H](n2nc(C#Cc3cc4c(cc3Cl)ncn4[C@@H]3CC3(F)F)c(C(N)=O)c2NC)C[C@@H]1COC (single isomer, unassigned) [Example 288] | ≤ 100
4 | C=CC(=O)N1C[C@@H](n2nc(C#Cc3ccc4cnoc4c3)c(C(N)=O)c2NC)CC1COC (stereo in doubt) [Example 26, 1-((3S,5S)-1-acryloyl-5-(methoxymethyl)pyrrolidin-3-yl)-3-(benzo[d]isoxazol-6-ylethynyl)-5-(methylamino)-1H-pyrazole-4-carboxamide] | 100 to 1000
5 | C=CC(=O)N1C[C@@H](n2nc(C#Cc3c(F)cc4c(ncn4CC(F)(F)F)c3F)c(C(N)=O)c2NC)CC1COC (stereo in doubt) [Example 34, 1-((3S,5S)-1-acryloyl-5-(methoxymethyl)pyrrolidin-3-yl)-3-((4,6-difluoro-1-(2,2,2-trifluoroethyl)-1H-benzo[d]imidazol-5-yl)ethynyl)-5-(methylamino)-1H-pyrazole-4-carboxamide] | ≤ 100
6 | C=CC(=O)N1C[C@@H](n2nc(C#Cc3c(F)cc4c(ncn4C4CC4)c3F)c(C(N)=O)c2NC)CC1C (stereo in doubt) [Example 159, 3-[2-(1-Cyclopropyl-4,6-difluoro-1,3-benzodiazol-5-yl)ethynyl]-1-[(3S,5R)-5-methyl-1-(prop-2-enoyl)pyrrolidin-3-yl]-5-(methylamino)pyrazole-4-carboxamide] | ≤ 100
7 | C#CC(=O)N1CC[C@H](n2nc(C#Cc3cc4ncn(C5CC5)c4cc3F)c(C(N)=O)c2NC)C1 (stereo in doubt) [Example 188, 3-[2-(1-Cyclopropyl-6-fluoro-1,3-benzodiazol-5-yl)ethynyl]-5 (methylamino)-1-[1-(prop-2-ynoyl)pyrrolidin-3-yl]pyrazole-4-carboxamide] | ≤ 100
8 | C=CC(=O)N1CC[C@H](n2nc(C#Cc3ccc4nc(C)[nH]c4c3)c(C(N)=O)c2NC)C1 [Example 2, (S)-1-(1-acryloylpyrrolidin-3-yl)-3-((2-methyl-1H-benzo[d]imidazol-6-yl)ethynyl)-5-(methylamino)-1H-pyrazole-4-carboxamide] | ≤ 100
9 | C=CC(=O)N1C[C@@H](n2nc(C#Cc3ccc4c(c3)nc(C)n4CC)c(C(N)=O)c2NC)C[C@@H]1COC [Example 3, 3-[2-(1-ethyl-2-methyl-1,3-benzodiazol-5-yl)ethynyl]-1-[(3S,5R)-5-(methoxymethyl)-1-(prop-2-enoyl)pyrrolidin-3-yl]-5-(methylamino)pyrazole-4-carboxamide] | ≤ 100
10 | C=CC(=O)N1C[C@@H](n2nc(C#Cc3ccc4c(cnn4C)c3)c(C(N)=O)c2NC)C[C@@H]1COC [Example 8] | ≤ 100
11 | C=CC(=O)N1C[C@@H](n2nc(C#Cc3ccc4nn(C)cc4c3)c(C(N)=O)c2NC)C[C@@H]1COC [Example 9, 1-((3S,5R)-1-acryloyl-5-(methoxymethyl)pyrrolidin-3-yl)-3-((2-methyl-2H-indazol-5-yl)ethynyl)-5-(methylamino)-1H-pyrazole-4-carboxamide] | 100 to 1000
12 | C=CC(=O)N1C[C@@H](n2nc(C#Cc3ccc4c(c3)nc(C(F)(F)F)n4C)c(C(N)=O)c2NC)C[C@@H]1COC [Example 10] | ≤ 100
13 | C=CC(=O)N1C[C@@H](n2nc(C#Cc3c(F)cc4c(ncn4C)c3F)c(C(N)=O)c2NC)C[C@@H]1COC [Example 11] | ≤ 100
14 | C=CC(=O)N1C[C@@H](n2nc(C#Cc3ccc4c(cnn4CC)c3)c(C(N)=O)c2NC)C[C@@H]1COC [Example 14] | ≤ 100
15 | C=CC(=O)N1C[C@@H](n2nc(C#Cc3ccc4nn(CC)cc4c3)c(C(N)=O)c2NC)C[C@@H]1COC [Example 15, 1-((3S,5R)-1-acryloyl-5-(methoxymethyl)pyrrolidin-3-yl)-3-((2-ethyl-2H-indazol-5-yl)ethynyl)-5-(methylamino)-1H-pyrazole-4-carboxamide] | ≤ 100
16 | C=CC(=O)N1C[C@@H](n2nc(C#Cc3c(F)cc4c(nc(C)n4CC)c3F)c(C(N)=O)c2NC)C[C@@H]1COC [Example 16, 1-((3S,5R)-1-acryloyl-5-(methoxymethyl)pyrrolidin-3-yl)-3-((1-ethyl-4,6-difluoro-2-methyl-1H-benzo[d]imidazol-5-yl)ethynyl)-5-(methylamino)-1H-pyrazole-4-carboxamide] | ≤ 100
17 | C=CC(=O)N1C[C@@H](n2nc(C#Cc3c(F)cc4[nH]c(C)nc4c3F)c(C(N)=O)c2NC)C[C@@H]1COC [Example 17] | ≤ 100
18 | C=CC(=O)N1C[C@@H](n2nc(C#Cc3c(F)cc4c(nc(C)n4C)c3F)c(C(N)=O)c2NC)C[C@@H]1COC [Example 18, 1-((3S,5R)-1-acryloyl-5-(methoxymethyl)pyrrolidin-3-yl)-3-((4,6-difluoro-1,2-dimethyl-1H-benzo[d]imidazol-5-yl)ethynyl)-5-(methylamino)-1H-pyrazole-4-carboxamide] | ≤ 100
19 | C=CC(=O)N1C[C@@H](n2nc(C#Cc3c(F)cc4c(cnn4C)c3F)c(C(N)=O)c2NC)C[C@@H]1COC [Example 19, 1-((3S,5R)-1-acryloyl-5-(methoxymethyl)pyrrolidin-3-yl)-3-((4,6-difluoro-1-methyl-1H-indazo1-5-yl)ethynyl)-5-(methylamino)-1H-1-pyrazole-4-carboxamide] | ≤ 100
20 | C=CC(=O)N1C[C@@H](n2nc(C#Cc3ccc4c(nc(C)n4C)c3F)c(C(N)=O)c2NC)C[C@@H]1COC [Example 20, 1-((3S,5R)-1-acryloyl-5-(pethoxymethyl)pyrrolidin-3-yl)-3-((4-fluoro-1,2-dimethyl-1H-benzo[d]imidazol-5-yl)ethynyl)-5-(methylamino)-1H-pyrazole-4-carboxamide] | ≤ 100
21 | C=CC(=O)N1C[C@@H](n2nc(C#Cc3ccc4c(nc(C)n4CC)c3F)c(C(N)=O)c2NC)C[C@@H]1COC [Example 21, 1-((3S,5R)-1-acryloyl-5-(methoxymethyl)pyrrolidin-3-yl)-3-((1-ethyl-4-fluoro-2-methyl-1H-benzo[d]imidazol-5-yl)ethynyl)-5-(methylamino)-1H-pyrazole-4-carboxamide] | ≤ 100
22 | C=CC(=O)N1C[C@@H](n2nc(C#Cc3cnc4c(c3)nc(C)n4CC)c(C(N)=O)c2NC)C[C@@H]1COC [Example 22, 1-((3S,5R)-1-acryloyl-5-(methoxymethyl)pyrrolidin-3-yl)-3-((3-ethyl-2-methyl-3H-imidazo[4,5-b]pyridin-6-yl)ethynyl)-5-(methylamino)-1H-pyrazole-4-carboxamide] | ≤ 100
23 | C=CC(=O)N1C[C@@H](n2nc(C#Cc3cnc4c(c3)ncn4C)c(C(N)=O)c2NC)C[C@@H]1COC [Example 23, 1-((3S,5R)-1-acryloyl-5-(methoxymethyl)pyrrolidin-3-yl)-3-((3-methyl-3H-imidazo[4,5-b]pyridin-6-yl)ethynyl)-5-(methylamino)-1H-pyrazole—4-carboxamide] | ≤ 100
24 | C=CC(=O)N1C[C@@H](n2nc(C#Cc3cc4nc(C)n(CC)c4cc3C#N)c(C(N)=O)c2NC)C[C@@H]1COC [Example 24, 1-((3S,5R)-1-acryloyl-5-(methoxymethyl)pyrrolidin-3-yl)-3-((6-cyano-1-ethyl-2-methyl-1H-benzo[d]imidazol-5-yl)ethynyl)-5-(methylamino)-1H-pyrazole-4-carboxamide] | 100 to 1000
25 | C=CC(=O)N1C[C@@H](n2nc(C#Cc3ccc4c(c3)nc(C3CC3)n4CC)c(C(N)=O)c2NC)C[C@@H]1COC [Example 25, 1-((3S,5R)-1-acryloyl-5-(methoxymethyl)pyrrolidin-3-yl)-3-((2-cyclopropyl-1-ethyl-1H-benzo[d]imidazol-5-yl)ethynyl)-5-(methylamino)-1H-pyrazole-4-carboxamide] | ≤ 100
26 | C=CC(=O)N1C[C@@H](n2nc(C#Cc3ccc4c(c3)nc(C(F)(F)F)n4CC)c(C(N)=O)c2NC)C[C@@H]1COC [Example 27, 1-((3S,5R)-1-acryloyl-5-(methoxymethyl)pyrrolidin-3-yl)-3-((1-ethyl-2-(trifluoromethyl)-1H-benzo[d]imidazol-5-yl)ethynyl)-5-(methylamino)-1H-pyrazole-4-carboxamide] | ≤ 100
27 | C=CC(=O)N1C[C@@H](n2nc(C#Cc3cc4nc(C)n(C)c4cc3F)c(C(N)=O)c2NC)C[C@@H]1COC [Example 28, 1-((3S,5R)-1-acryloyl-5-(methoxymethyl)pyrrolidin-3-yl)-3-((6-fluoro-1,2-dimethyl-1H-benzo[d]imidazol-5-yl)ethynyl)-5-(methylamino)-1H-pyrazole-4-carboxamide] | ≤ 100
28 | C=CC(=O)N1C[C@@H](n2nc(C#Cc3c(F)cc4c(ncn4CC)c3F)c(C(N)=O)c2NC)C[C@@H]1COC [Example 29, 1-((3S,5R)-1-acryloyl-5-(methoxymethyl)pyrrolidin-3-yl)-3-((1-ethyl-4,6-difluoro-1H-benzo[d]imidazol-5-yl)ethynyl)-5-(methylamino)-1H-pyrazole-4-carboxamide] | ≤ 100
29 | C=CC(=O)N1C[C@@H](n2nc(C#Cc3c(F)cc4c(ncn4C(F)F)c3F)c(C(N)=O)c2NC)C[C@@H]1COC [Example 30, 1-((3S,5R)-1-acryloyl-5-(methoxymethyl)pyrrolidin-3-yl)-3-((1-(difluoromethyl)-4,6-difluoro-1H-benzo[d]imidazol-5-yl)ethynyl)-5-(methylamino)-1H-pyrazole-4-carboxamide] | ≤ 100
30 | C=CC(=O)N1C[C@@H](n2nc(C#Cc3cc4ncn(CC)c4cc3F)c(C(N)=O)c2NC)C[C@@H]1COC [Example 32, 1-((3S,5R)-1-acryloyl-5-(methoxymethyl)pyrrolidin-3-yl)-3-((1-ethyl-6-fluoro-1H-benzo[d]imidazol-5-yl)ethynyl)-5-(methylamino)-1H-pyrazole-4-carboxamide] | ≤ 100

Same assay, conditions: wild type FGFR2 0.06 nM, 100 μM ATP, 80 minutes at room temperature; given as numeric bound

Row | Structure (SMILES) | IC50 [nM]
31 | C=CC(=O)N1C[C@@H](n2nc(C#Cc3cc4c(cc3Cl)ncn4[C@H]3CC3(F)F)c(C(N)=O)c2NC)C[C@@H]1COC (single isomer, unassigned) [Example 289] | > 500
